How the values were obtained:
[1] = Rat plasma protein binding; type: in vitro ADME
From the text: (§1) Supplement KCHL_A_2122309_SM6747.docx, table 1 | column: SSI-5; SSI-3; SSI-4; SSI-1; SSI-6

Cav1.2 = Cav1.2 (Homo sapiens, UniProt Q13936); assay: Global Counterscreen Cav1.2
From the text: as §1

[2] = target: (Homo sapiens, UniProt Q12809); assay: Global Counterscreen MK499 binding
From the text: as §1

hERG = hERG (Homo sapiens, UniProt Q12809); assay: Functional Ion Channel Panel hERG; type: biochemical; conditions: read-out: hERG %inh
hERG, sequence (Q12809 whole entry): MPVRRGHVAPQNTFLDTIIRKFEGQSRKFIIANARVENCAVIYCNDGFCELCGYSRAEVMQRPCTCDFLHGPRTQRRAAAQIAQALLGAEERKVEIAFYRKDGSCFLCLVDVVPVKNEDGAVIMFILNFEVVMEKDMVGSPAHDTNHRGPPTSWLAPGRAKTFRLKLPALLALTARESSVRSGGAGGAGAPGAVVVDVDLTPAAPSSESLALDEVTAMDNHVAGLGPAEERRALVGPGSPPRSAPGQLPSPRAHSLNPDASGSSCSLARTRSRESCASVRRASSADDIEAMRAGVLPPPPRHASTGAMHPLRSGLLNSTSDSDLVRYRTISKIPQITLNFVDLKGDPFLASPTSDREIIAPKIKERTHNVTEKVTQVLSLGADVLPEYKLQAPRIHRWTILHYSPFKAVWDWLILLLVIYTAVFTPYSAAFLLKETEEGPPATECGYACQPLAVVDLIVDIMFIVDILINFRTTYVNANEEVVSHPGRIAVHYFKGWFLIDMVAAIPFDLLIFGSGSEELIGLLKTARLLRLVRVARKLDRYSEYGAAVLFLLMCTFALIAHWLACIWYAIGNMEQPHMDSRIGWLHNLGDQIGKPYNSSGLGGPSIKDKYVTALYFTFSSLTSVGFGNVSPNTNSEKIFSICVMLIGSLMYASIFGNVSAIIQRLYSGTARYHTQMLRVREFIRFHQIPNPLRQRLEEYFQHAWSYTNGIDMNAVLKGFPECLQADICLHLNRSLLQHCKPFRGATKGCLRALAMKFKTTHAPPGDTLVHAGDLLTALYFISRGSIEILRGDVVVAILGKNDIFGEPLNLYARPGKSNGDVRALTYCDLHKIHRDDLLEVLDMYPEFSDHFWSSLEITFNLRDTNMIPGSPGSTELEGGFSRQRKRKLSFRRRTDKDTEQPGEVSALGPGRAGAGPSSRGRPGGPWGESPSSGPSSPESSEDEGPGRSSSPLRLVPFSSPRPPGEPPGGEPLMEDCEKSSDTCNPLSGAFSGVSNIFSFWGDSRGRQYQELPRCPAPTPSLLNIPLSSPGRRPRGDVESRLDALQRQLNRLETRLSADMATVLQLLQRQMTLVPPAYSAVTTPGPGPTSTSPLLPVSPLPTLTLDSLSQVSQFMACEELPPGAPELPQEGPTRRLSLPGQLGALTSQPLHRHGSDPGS
From the text: (§2) Supplement KCHL_A_2122309_SM6747.docx, table 1 | column: SSI-5; SSI-3; SSI-4; SSI-1

Iks = Iks (Homo sapiens, UniProt P51787); assay: Functional Ion Channel Panel Iks; type: biochemical; conditions: read-out: Iks %inh
From the text: as §2

Adrenergic α1D = target: T1, Adrenergic α1D (Homo sapiens, UniProt P25100); assay: Panlabs selection; type: binding
T1 construct: Panlabs
From the text: as §2

Adrenergic α2A = target: T2, Adrenergic α2A (Homo sapiens, UniProt P08913); assay: Panlabs selection; type: binding
T2 construct: Panlabs
T2 sequence (P08913 whole entry): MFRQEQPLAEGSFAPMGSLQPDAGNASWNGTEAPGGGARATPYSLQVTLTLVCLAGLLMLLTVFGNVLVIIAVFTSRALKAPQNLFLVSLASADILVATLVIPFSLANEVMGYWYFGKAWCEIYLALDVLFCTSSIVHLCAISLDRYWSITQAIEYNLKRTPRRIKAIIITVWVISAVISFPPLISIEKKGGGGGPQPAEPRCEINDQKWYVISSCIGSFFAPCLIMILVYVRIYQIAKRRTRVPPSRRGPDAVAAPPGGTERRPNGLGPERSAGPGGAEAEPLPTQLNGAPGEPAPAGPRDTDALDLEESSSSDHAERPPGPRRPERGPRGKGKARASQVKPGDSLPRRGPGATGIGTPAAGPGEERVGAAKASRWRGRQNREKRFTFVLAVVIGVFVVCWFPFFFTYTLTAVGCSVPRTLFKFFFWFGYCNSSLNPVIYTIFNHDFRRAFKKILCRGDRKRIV
From the text: as §2

Adrenergic α2B = target: T3, Adrenergic α2B (Homo sapiens, UniProt P18089); assay: Panlabs selection; type: binding
T3 construct: Panlabs
From the text: as §2

Adrenergic α2C = target: T4, Adrenergic α2C (Homo sapiens, UniProt P18825); assay: Panlabs selection; type: binding
T4 construct: Panlabs
From the text: as §2

Histamine H1 = target: T5, Histamine H1 (Homo sapiens, UniProt P35367); assay: Panlabs selection; type: binding
T5 construct: Panlabs
From the text: as §2

Melanocortin MC5 = target: T6, Melanocortin MC5 (Homo sapiens, UniProt P33032); assay: Panlabs selection; type: binding
T6 construct: Panlabs
T6 sequence (P33032 whole entry): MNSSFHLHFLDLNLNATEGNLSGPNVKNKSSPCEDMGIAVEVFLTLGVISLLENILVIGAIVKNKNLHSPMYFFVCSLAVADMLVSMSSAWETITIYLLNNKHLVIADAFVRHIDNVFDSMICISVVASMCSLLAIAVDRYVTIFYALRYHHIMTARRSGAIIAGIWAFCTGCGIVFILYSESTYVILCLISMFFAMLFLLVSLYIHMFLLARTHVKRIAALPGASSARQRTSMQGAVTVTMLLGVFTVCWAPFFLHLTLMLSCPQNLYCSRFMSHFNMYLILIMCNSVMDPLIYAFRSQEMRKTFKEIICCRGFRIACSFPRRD
From the text: as §2

Serotonin 5-HT2B = Serotonin 5-HT2B (Homo sapiens, UniProt P41595); assay: Panlabs selection; type: binding
From the text: as §2

Transporter, Choline = Transporter, Choline (Homo sapiens, UniProt Q9GZV3); assay: Panlabs selection; type: binding
From the text: as §2

[3] = target: Transporter, Dopamine DAT (Homo sapiens, UniProt Q01959); assay: Panlabs selection; type: binding
From the text: as §2

[4] = target: Transporter, Norepinephrine NET (Homo sapiens, UniProt P23975); assay: Panlabs selection; type: binding
From the text: as §2

Nicotinic Acetylcholine = assay: Panlabs selection; type: binding
From the text: Supplement KCHL_A_2122309_SM6747.docx, table 1 | column: SSI-5; SSI-4; SSI-1

NAChR α3β4 = target: T7, NAChR α3β4 (Homo sapiens, UniProt P30926+P32297); assay: Panlabs selection; type: binding
T7 construct: Panlabs

Nav1.6 [5] = target: T8, Nav1.6 (Homo sapiens, UniProt Q9UQD0); assay: Nav1.6 binding; parameters: expressed in transfected cells; host or cells: HEK cells; conditions: read-out: Nav1.6 bind Ki
T8 sequence (Q9UQD0 whole entry): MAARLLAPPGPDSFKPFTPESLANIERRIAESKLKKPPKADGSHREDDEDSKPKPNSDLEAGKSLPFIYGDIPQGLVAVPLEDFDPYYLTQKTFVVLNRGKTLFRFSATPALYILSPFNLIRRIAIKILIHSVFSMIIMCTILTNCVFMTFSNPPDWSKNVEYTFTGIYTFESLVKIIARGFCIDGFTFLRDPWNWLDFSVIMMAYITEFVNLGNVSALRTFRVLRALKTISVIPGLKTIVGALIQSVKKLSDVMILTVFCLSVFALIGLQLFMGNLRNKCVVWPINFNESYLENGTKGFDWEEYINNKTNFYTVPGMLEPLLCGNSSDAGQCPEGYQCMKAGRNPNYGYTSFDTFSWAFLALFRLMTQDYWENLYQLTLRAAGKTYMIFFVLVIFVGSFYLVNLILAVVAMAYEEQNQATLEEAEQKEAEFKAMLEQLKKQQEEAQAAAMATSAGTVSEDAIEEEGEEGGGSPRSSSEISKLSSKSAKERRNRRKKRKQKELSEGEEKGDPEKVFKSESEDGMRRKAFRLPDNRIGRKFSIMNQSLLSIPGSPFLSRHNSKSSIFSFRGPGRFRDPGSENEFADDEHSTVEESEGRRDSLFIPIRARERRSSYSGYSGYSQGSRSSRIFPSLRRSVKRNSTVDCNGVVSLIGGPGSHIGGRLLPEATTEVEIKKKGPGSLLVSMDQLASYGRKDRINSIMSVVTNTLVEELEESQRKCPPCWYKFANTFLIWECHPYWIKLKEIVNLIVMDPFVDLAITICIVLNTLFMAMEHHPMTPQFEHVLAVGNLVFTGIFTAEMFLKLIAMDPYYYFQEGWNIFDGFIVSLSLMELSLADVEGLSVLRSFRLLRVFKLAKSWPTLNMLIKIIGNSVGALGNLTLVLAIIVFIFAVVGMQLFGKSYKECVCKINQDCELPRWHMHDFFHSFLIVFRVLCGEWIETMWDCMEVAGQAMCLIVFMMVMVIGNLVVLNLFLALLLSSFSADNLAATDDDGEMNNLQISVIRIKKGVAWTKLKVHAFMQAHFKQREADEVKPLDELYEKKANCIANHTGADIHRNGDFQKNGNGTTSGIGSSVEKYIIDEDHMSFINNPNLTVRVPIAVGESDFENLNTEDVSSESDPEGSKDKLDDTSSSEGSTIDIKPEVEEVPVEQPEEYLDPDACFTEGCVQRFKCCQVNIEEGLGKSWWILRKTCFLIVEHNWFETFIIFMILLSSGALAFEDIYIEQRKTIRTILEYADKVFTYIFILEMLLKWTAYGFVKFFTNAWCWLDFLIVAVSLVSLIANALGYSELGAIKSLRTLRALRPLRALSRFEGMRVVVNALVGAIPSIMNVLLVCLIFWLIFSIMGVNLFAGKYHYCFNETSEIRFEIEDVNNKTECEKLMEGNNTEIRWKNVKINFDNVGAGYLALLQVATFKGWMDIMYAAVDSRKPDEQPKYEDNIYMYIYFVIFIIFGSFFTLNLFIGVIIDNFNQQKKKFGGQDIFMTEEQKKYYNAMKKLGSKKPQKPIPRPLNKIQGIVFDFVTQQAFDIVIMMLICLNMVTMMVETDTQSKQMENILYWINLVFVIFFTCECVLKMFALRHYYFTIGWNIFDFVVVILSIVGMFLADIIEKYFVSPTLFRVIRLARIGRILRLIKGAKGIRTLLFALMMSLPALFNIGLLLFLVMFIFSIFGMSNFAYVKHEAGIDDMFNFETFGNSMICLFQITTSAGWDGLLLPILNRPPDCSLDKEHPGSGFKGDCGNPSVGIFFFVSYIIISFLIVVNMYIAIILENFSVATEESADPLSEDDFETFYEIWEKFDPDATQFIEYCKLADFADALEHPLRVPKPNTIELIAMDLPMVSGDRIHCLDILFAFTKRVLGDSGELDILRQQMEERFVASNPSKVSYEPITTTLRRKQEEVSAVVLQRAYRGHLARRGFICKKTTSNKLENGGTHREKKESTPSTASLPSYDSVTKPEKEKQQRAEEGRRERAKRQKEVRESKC
From the text: as §1

Nav1.6 [6] = target: T8, Nav1.6; assay: PX Nav1.6 IC50 (supplement); type: cell-based; parameters: expressed in transfected cells; host or cells: HEK cells
Method: Sodium currents were recorded from recombinant Human Embryonic Kidney 293 cell lines stably overexpressing the respective sodium channel type (NaV1.2, 1.5, 1.4, 1.6, 1.7). Recording solutions were comprised of the following (in mM): Internal solution: 30 CsCl, 5 HEPES, 10 EGTA, 120 CsF, 5 NaF, 2 MgCl2, pH = 7.3 with CsOH; External solution 1: 40 NaCl, 120 NMDG, 1 KCl, 0.5 MgCl2, 5 HEPES, 2.7 CaCl2, pH to 7.3 with NaOH, used for NaV1.5 recordings; External solution 2: 150 NaCl, 5 KCl, 2 CaCl2, 1 MgCl2, 10 HEPES, 12 Dextrose, pH 7.3 with NaOH, used for NaV1.7, 1.6, 1.4, and 1.2 recordings.
Whole-cell currents were recorded from cells stably expressing NaV channels using the PatchXpress 7000A automated patch clamp platform (Molecular Devices, LLC; Sunnyvale, CA). A portable air-conditioning unit was installed on the PatchXpress instruments to maintain the temperature of the headstage at 21°C. Cells were voltage clamped at −60 mV for cell detection and sealing. At the start of each recording, a voltage curve and an inactivation curve was run for each cell to determine the voltage at which 50% of the channels reside in the inactivated state (V0.5 inact). […]
NaV1.7, NaV1.6, NaV1.4: Compound potency was measured in a hyperpolarized-state protocol where the holding potential for each cell was set to V0.5inact – 20 mV. […]

(Homo sapiens, UniProt Q12809), sequence (Q12809 whole entry): as the sequence (Q12809 whole entry) above

Row | Structure (SMILES) | fraction unbound [1] | IC50 (Cav1.2) [µM] | Ki [2] [µM] | inhibition at 30 µM (hERG) [%] | inhibition at 30 µM (Iks) [%] | Ki (Adrenergic α1D) [µM] | Ki (Adrenergic α2A) [µM] | Ki (Adrenergic α2B) [µM] | Ki (Adrenergic α2C) [µM] | Ki (Histamine H1) [µM] | Ki (Melanocortin MC5) [µM] | Ki (Serotonin 5-HT2B) [µM] | Ki (Transporter, Choline) [µM] | Ki [3] [µM] | Ki [4] [µM] | Ki (Nicotinic Acetylcholine) [µM] | Ki (NAChR α3β4) [µM] | Ki (Nav1.6 [5]) [nM] | IC50 (Nav1.6 [6]) [µM]
1 | O=S(=O)(Nc1nccs1)c1cc(Cl)c(NCCCCNC[C@H]2CCCN2)cc1F [SSCI-1] | 0.067 | > 30 | > 54 | 22 | -1 | > 10 | > 10 | > 10 | > 10 | > 10 | > 10 | > 10 | 3.19 | 0.98 | 3.93 | > 10 | > 10 | 47.1 | 18.2
2 | COc1ccc(CCC(c2cccc3c2CNCC3)n2c(=O)oc3cc(S(=O)(=O)Nc4ncns4)c(F)cc32)cc1 (stereo not drawn) [SSCI-6] | 0.018 | 24 | 17 | – | – | – | – | – | – | – | – | – | – | – | – | – | – | 0.08 | 0.018 to 0.036
